The results in this text go back to PMC12505902, “Inhibitors of trehalose-6-phosphate synthase activity in fungal pathogens compromise thermal tolerance pathways” (mBio, 2025).

Experiment [1] deals with trehalose content of wild-type C. albicans. The experiment in a line: Trehalose measurement (colorimetric glucose assay after trehalase). As to conditions: 0.5 mM 4456dh. Format: cell-based. The procedure: Given that 4456dh inhibits the activity of CaTps1 and CnTps1 in vitro and has bioactivity against multiple Candida and Cryptococcus species, we tested whether 4456dh affects trehalose production in cells. We quantified trehalose levels in cells treated with 4456dh at sub-lethal concentrations as determined by the MIC assays using a colorimetric spectrophotometric assay. We measured trehalose production in wild-type C. albicans at 30°C and 42°C, in the presence and absence of 4456dh. […] However, we observed a significant increase in trehalose content when C. albicans was exposed to high temperature stress (P < 0.0001; Fig. 5A).
Fig 5 4456dh treatment results in reduced trehalose accumulation and a decrease in Tps1-dependent virulence factors. […] Trehalose was measured using a colorimetric glucose assay after treatment of cultures with trehalase. […] Cells were harvested, stained in India Ink, and analyzed using differential interference contrast imaging. […]
124 technical replicates. Growth, as determined by a reading of absorbance at 600 nm, was
125 normalized to untreated controls and was corrected for the absorbance of 4456dh in the YPD […]
129 overnight cultures was quantified by measuring the OD600 and corrected for the background
130 absorbance of the medium. Antifungal potency for 4456dh was assessed by minimum inhibitory […]

The test system of the next experiment is C. neoformans WT H99. In words: C. neoformans capsule assay (India Ink). Format: cell-based. As to conditions: 0.1, 0.5 and 1 mM 4456dh, 72 hours at 30°C, dose-dependent. Here is the method:
Fig 5 4456dh treatment results in reduced trehalose accumulation and a decrease in Tps1-dependent virulence factors. Trehalose accumulation measurements for C. albicans (A) and C. neoformans (B) cultured at indicated temperatures in the absence or presence of 0.5 mM 4456dh. Trehalose was measured using a colorimetric glucose assay after treatment of cultures with trehalase. Statistical comparisons were done with a one-way analysis of variance (ANOVA) analysis followed by a post hoc Tukey’s test. Error bars represent SE. (C) C. albicans WT strain SC5314 cells were treated with 0.5 mM, 1.0 mM, and 5 mM 4456dh. Untreated C. albicans WT cells and the C. albicans tps1Δ/tps1Δ deletion strain were included in this experiment as positive and negative controls, respectively. Increasing concentrations of 4456dh negatively affect filamentation in C. albicans in YPD plus 10% fetal bovine serum incubated at 37°C for 2 hours. Representative images from two independent experiments are shown. The scale bars represent 10 microns. (D) Analysis of capsule formation in C. neoformans WT H99 using India Ink counter-staining in cells treated with 0.1 mM, 0.5 mM, and 1 mM 4456dh. […] Cells were harvested, stained in India Ink, and analyzed using differential interference contrast imaging. […]
190 (Zeiss). The size of the capsule of > 100 cells per 4456dh treatment was quantified using Image […]

Structures are written as SMILES.

As for `Cn1cc(-c2csc(NC(=O)Cc3ccccn3)n2)cn1` [Compound 4456dh], the “change in trehalose content” value in experiment [1] (30°C) is “no significant change detected”; in experiment [1] (42°C), “approximate twofold decrease”. For the same molecule, in the experiment with C. neoformans WT H99, the capsule production entry is on record as “capsule production was affected”.
